According to patent publication US10233186B2, “Inhibitors of activin receptor-like kinase” (BLUEPRINT MEDICINES CORPORATION, priority 2016, dated 2019):

Tests used:
human ALK2 R206H = target: T1, human ALK2 R206H (Homo sapiens, UniProt Q04771, R206H); assay: Cell-based ALK2-R206H cell activity assay (Smad1-Ser463/Ser465 phosphorylation by AlphaLISA in HEK293-ALK2-R206H cells); conditions: read-out: Cell Line (Cell Assay IC50)
T1 construct: expressed in transfected cells; host or cells: HEK293 (ATCC CRL1573), lentivirus transduction, blasticidin selection
T1 sequence (Q04771 21-509 R206H): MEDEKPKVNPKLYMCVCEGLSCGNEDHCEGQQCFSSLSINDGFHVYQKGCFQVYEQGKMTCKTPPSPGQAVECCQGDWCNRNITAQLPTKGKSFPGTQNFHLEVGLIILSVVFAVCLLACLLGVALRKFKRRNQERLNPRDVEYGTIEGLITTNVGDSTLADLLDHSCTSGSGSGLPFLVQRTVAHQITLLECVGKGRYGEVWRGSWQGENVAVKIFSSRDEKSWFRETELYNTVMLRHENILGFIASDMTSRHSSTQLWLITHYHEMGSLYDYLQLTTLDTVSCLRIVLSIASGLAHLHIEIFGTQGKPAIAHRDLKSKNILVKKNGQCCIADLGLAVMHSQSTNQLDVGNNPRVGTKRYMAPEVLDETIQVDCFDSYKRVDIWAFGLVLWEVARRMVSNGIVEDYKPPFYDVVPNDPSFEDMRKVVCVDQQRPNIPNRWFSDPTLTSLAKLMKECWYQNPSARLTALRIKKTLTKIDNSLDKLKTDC
Method in brief: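 Stable HEK293 cells expressing C-terminally FLAG-tagged human ALK2 R206H (lentiviral, blasticidin-selected) were treated with compounds in 10-point, 3-fold dilutions from 10 μM or 1 μM top, in duplicate. Smad1 Ser463/Ser465 phosphorylation was read by AlphaLISA.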

[1] = target: T2, ALK2 R206H (GST-tagged mutant ALK2) (Homo sapiens, UniProt Q04771, R206H); assay: ALK binding assay (LANTHASCREEN TR-FRET competitive binding, displacement of Kinase Tracer 178); conditions: ALK2 R206H, LANTHASCREEN TR-FRET competitive binding; read-out: Binding Assay (IC50)
T2 construct: purchased Carna Bioscience or ThermoFisher 09-148 or PV6232
T2 sequence (Q04771 21-509 R206H): T1 sequence (Q04771 21-509 R206H)

Structure (SMILES) | IC50 (human ALK2 R206H) [nM] | IC50 [1] [nM]
CCNC(=O)N1CCN(c2ccnn3cc(-c4ccc([C@H]5CCN(C(C)C)C5)cc4)cc23)CC1 [Compound 225] | < 100 | < 10
CCN1CC[C@H](c2ccc(-c3cc4c(N5CCN(C(=O)[C@H]6C[C@H]6F)CC5)ccnn4c3)cc2)C1 [Compound 226] | < 100 | < 10
CCN1CC[C@@H](c2ccc(-c3cc4c(N5CCN(C(=O)[C@H]6C[C@H]6F)CC5)ccnn4c3)cc2)C1 [Compound 227] | < 100 | < 10
CCN1CC(F)C(c2ccc(-c3cc4c(N5CCN(C(=O)C6CC6)CC5)ccnn4c3)cc2)C1 (stereo not shown) [Compound 228] | < 100 | < 10
O=C(C1CCC1)N1CCN(c2ccnn3cc(-c4ccc(C5(F)CCCNC5)cc4)cc23)CC1 (stereo not shown) [Compound 229] | < 100 | < 10
CCOC(=O)N1CCN(c2ccnn3cc(-c4ccc(C5CCN(CC)CC5)cc4)cc23)CC1 [Compound 230, ethyl 4-(6-(4-(1-ethylpiperidin-4-yl)phenyl)pyrrolo[1,2-b]pyridazin-4-yl)piperazine-1-carboxylate] | < 100 | < 10
CCOC(=O)N1CCN(c2ccnn3cc(-c4ccc([C@H]5CCN(C(C)C)C5)cc4)cc23)CC1 [Compound 231] | < 100 | < 10
CCNC(=O)N1CCN(c2ccnn3cc(-c4ccc(C5(O)CN(C(C)C)C5)cc4)cc23)CC1 [Compound 235] | 100 to 500 | < 10
CCOC(=O)N1CCN(c2ccnn3cc(-c4ccc(OC5CN(C(C)C)C5)cc4)cc23)CC1 [Compound 236] | 100 to 500 | < 10
O=C(C1CC1)N1CCN(c2ccnn3cc(-c4ccc(C5CCNCC5(F)F)cc4)cc23)CC1 (stereo not shown) [Compound 238] | 100 to 500 | < 10
[2H]C([2H])([2H])C([2H])([2H])N1CCN(c2ccc(-c3cc4c(N5CCN(C(=O)NCC)CC5)ccnn4c3)cc2)CC1 [Compound 240] | < 100 | < 10
CCN1CCC(c2ccc(-c3cc4c(N5CCN(C(=O)C6CCC6)CC5)ccnn4c3)cc2)CC1 [Compound 250] | < 100 | < 10
CCN1CCC(c2ccc(-c3cc4c(N5CCN(C(=O)[C@H]6CC6(C)C)CC5)ccnn4c3)cc2)C1 (stereo partly shown) [Compound 251] | < 100 | < 10
CCN1CCC(c2ccc(-c3cc4c(N5CCN(C(=O)C6CC6)[C@H](C)C5)ccnn4c3)cc2)CC1 [Compound 252] | 100 to 500 | < 10
CC(C)N1CC[C@H](c2ccc(-c3cc4c(N5CCN(C(=O)C6CC6)[C@H](C)C5)ccnn4c3)cc2)C1 [Compound 253] | 100 to 500 | < 10
CC(C)N1CC[C@@H](c2ccc(-c3cc4c(N5CCN(C(=O)C6CC6)[C@H](C)C5)ccnn4c3)cc2)C1 [Compound 254] | < 100 | < 10
Cc1cc([C@@H]2CCN(C(C)C)C2)ccc1-c1cc2c(N3CCN(C(=O)C4CC4)CC3)ccnn2c1 [Compound 255] | 100 to 500 | < 10
Cc1cc([C@H]2CCN(C(C)C)C2)ccc1-c1cc2c(N3CCN(C(=O)C4CC4)CC3)ccnn2c1 [Compound 256] | 100 to 500 | < 10
N#C[C@H]1C[C@@H]1C(=O)N1CCN(c2ccnn3cc(-c4ccc(C5(F)CCCNC5)cc4)cc23)CC1 (stereo partly shown) [Compound 258] | < 100 | < 10
CCN1CCC(COc2ccc(-c3cc4c(N5CCN(C(=O)C6CC6)CC5)ccnn4c3)cc2)C1 (stereo not shown) [Compound 270] | < 100 | < 10

Further lines, results first:

IC50 (human ALK2 R206H) [nM] | IC50 [1] [nM] | Structure (SMILES)
100 to 500 | < 10 | COC(=O)N1CCN(c2ccnn3cc(-c4ccc(C5CCN(C(C)C)CC5)cc4)cc23)CC1 [Compound 232]
< 100 | < 10 | O=C(C1CC(F)C1)N1CCN(c2ccnn3cc(-c4ccc(N5CCNCC5)cc4)cc23)CC1 (stereo not shown) [Compound 234]
< 100 | < 10 | [2H]C([2H])([2H])C([2H])([2H])N1CCN(c2ccc(-c3cc4c(N5CCN(C(=O)C6CC6)CC5)ccnn4c3)cc2)CC1 [Compound 237]
< 100 | < 10 | CCN1CC2(C1)CN(c1ccc(-c3cc4c(N5CCN(C(=O)C6CC6)CC5)ccnn4c3)cc1)C2 [Compound 241]
100 to 500 | < 10 | CCN1C[C@@H]2C[C@H]1CN2c1ccc(-c2cc3c(N4CCN(C(=O)C5CC5)CC4)ccnn3c2)cc1 [Compound 242]
< 100 | < 10 | O=C(C1CC1)N1CCN(c2ccnn3cc(-c4ccc(N5CCN6CCCC6C5)cc4)cc23)CC1 (stereo not shown) [Compound 243]
100 to 500 | 10 to 50 | CC(=O)N1CCC(c2ccc(-c3cc4c(N5CCN(C(=O)C6CC6)CC5)ccnn4c3)cc2)CC1 [Compound 245]
< 100 | < 10 | CC(C)N1CCC(c2ccc(-c3cc4c(N5CCN(C(=O)C6CC6)CC5)ccnn4c3)cc2)CC1 [Compound 246]
< 100 | < 10 | CC(C)N1CCC[C@H](c2ccc(-c3cc4c(N5CCN(C(=O)C6CC6)CC5)ccnn4c3)cc2)C1 [Compound 247]
< 100 | < 10 | CC(C)N1CCC[C@@H](c2ccc(-c3cc4c(N5CCN(C(=O)C6CC6)CC5)ccnn4c3)cc2)C1 [Compound 248]
< 100 | < 10 | CC(C)N1CCC(c2ccc(-c3cc4c(N5CCN(C(=O)C6CCC6)CC5)ccnn4c3)cc2)C1 (stereo not shown) [Compound 249]
< 100 | < 10 | CC(C)N1CCCCC1c1ccc(-c2cc3c(N4CCN(C(=O)C5CC5)CC4)ccnn3c2)cc1 (stereo not shown) [Compound 257]
> 500 | 10 to 50 | CCN1CCN(c2ccc(-c3cc4c(N5CCN(C(=O)C6CC6)CC5)ccnn4c3)cc2)C(=O)C1 [Compound 259]
100 to 500 | < 10 | O=C(C1CC1)N1CCN(c2ccnn3cc(-c4ccc(N5CCNC6(COC6)C5)cc4)cc23)CC1 [Compound 260, (4-(6-(4-(2-oxa-5,8-diazaspiro[3.5]nonan-8-yl)phenyl)pyrrolo[1,2-b]pyridazin-4-yl)piperazin-1-yl)(cyclopropyl)methanone]
< 100 | < 10 | CC(C)N1CCN(c2ccc(-c3cc4c(N5CCN(C(=O)C6CC6)CC5)ccnn4c3)cc2)CC1 [Compound 261]
100 to 500 | < 10 | CCN1CCN(c2ccc(-c3cc4c(N5CCN(C(=O)C6CCC6)CC5)ccnn4c3)cc2)CC1 [Compound 262]
100 to 500 | < 10 | CCN1CCN(c2ccc(-c3cc4c(N5CCN(C(=O)C6CC6)C[C@@H]5C)ccnn4c3)cc2)CC1 [Compound 263]
100 to 500 | < 10 | CCN1CCN(c2ccc(-c3cc4c(N5CCN(C(=O)C6CC6)CC5)ccnn4c3)cc2)C[C@H]1C [Compound 264]
< 100 | < 10 | CCN1CCN(c2ccc(-c3cc4c(N5CCN(C(=O)C6CC6)CC5)ccnn4c3)cc2)C[C@@H]1C [Compound 265]
< 100 | < 10 | CC(C)N1CCC(c2ccc(-c3cc4c(N5CCN(C(=O)C6CC6)CC5)ccnn4c3)nc2)CC1 [Compound 266]
< 100 | < 10 | CC(C)N1CCC(c2ccc(-c3cc4c(N5CCN(C(=O)C6CC6)CC5)ccnn4c3)cn2)CC1 [Compound 267]
100 to 500 | 10 to 50 | CCN1CCC(Oc2ccc(-c3cc4c(N5CCN(C(=O)C6CC6)CC5)ccnn4c3)cc2)CC1 [Compound 268]
< 100 | < 10 | CCN1CCCC(Oc2ccc(-c3cc4c(N5CCN(C(=O)C6CC6)CC5)ccnn4c3)cc2)C1 (stereo not shown) [Compound 269]
100 to 500 | < 10 | CC(C)N1CCC(O)(c2ccc(-c3cc4c(N5CCN(C(=O)C6CC6)CC5)ccnn4c3)cc2)C1 (stereo not shown) [Compound 271]
